Target: p110α (Homo sapiens (Human), UniProt P42336)
Test: PI3K lipid kinase activity on lipid micelles (ADP-Glo), p110α
Format: biochemical
Conditions: 10 μM ATP
Protocol: a) Some compounds of formula (I) described herein were assayed in vitro for their ability to inhibit the lipid kinase activity of PI3Ks, by using a non-radioactive method.
In details, His and GST-tagged recombinant proteins (purchased from JenaBioscience—Germany; PI3Kα #PR-335, PI3Kβ #PR-344, PI3Kγ #PR-343, PI3Kδ #PR-345) for each isoform PI3Kα, β, γ and δ, were incubated with 10 μM of ATP, with lipid micells containg the appropriate substrate phosphatidylinositol and the phosphatidilserine, and different concentrations of the formula (I) compounds.
After 30 minutes of incubation at room temperature, the amount of ADP produced from ATP following the activation of kinase was measured with a luminescent kinase assay, ADP-Glo™ Kinase Assay (purchased from Promega—USA #V9101).
The luminescent signal positively correlates with the formed ADP and, therefore, with the kinase activity.
Inhibition of PI3K lipid kinase activity is achieved when the amount of ADP—that is correlated with the PI3K activity—in the presence of the assayed compound of formula (I) is lower than the amount detected in the control samples.
For each assayed formula (I) compound, a specific IC50 for each class I PI3K isoform was measured.
The IC50 of a formula (I) compound is the concentration of the compound able to inhibit by 50% the kinase activity of each PI3K isoform.
The IC50 was determined by constructing a dose-response curve and examining the inhibitory effect of different concentrations of the assayed formula (I) compounds on the ADP production.
To evaluate the ability of each compound of formula (I) to inhibit the lipid kinase activity of each PI3K isoform, PI3Kα, β, γ and δ recombinant proteins (30 ng for each assay) were incubated for about 30 minutes with different concentrations of compounds.
Lipid micelles were formed by sonicating a mixture of 1 mg of phosphatidylinositol and 1 mg of phosphatidylserine. Lipid micelles were use as substrate for the PI3K lipid kinase activity. The reaction was started by adding 10 μM of ATP and 10 μM of micelles to each reaction.
After 30 minutes of incubation at room temperature, the reaction was stopped and the amount of ADP produced was measured by using the ADP-glo assay (see above).

Chain of p110α (P42336 whole entry): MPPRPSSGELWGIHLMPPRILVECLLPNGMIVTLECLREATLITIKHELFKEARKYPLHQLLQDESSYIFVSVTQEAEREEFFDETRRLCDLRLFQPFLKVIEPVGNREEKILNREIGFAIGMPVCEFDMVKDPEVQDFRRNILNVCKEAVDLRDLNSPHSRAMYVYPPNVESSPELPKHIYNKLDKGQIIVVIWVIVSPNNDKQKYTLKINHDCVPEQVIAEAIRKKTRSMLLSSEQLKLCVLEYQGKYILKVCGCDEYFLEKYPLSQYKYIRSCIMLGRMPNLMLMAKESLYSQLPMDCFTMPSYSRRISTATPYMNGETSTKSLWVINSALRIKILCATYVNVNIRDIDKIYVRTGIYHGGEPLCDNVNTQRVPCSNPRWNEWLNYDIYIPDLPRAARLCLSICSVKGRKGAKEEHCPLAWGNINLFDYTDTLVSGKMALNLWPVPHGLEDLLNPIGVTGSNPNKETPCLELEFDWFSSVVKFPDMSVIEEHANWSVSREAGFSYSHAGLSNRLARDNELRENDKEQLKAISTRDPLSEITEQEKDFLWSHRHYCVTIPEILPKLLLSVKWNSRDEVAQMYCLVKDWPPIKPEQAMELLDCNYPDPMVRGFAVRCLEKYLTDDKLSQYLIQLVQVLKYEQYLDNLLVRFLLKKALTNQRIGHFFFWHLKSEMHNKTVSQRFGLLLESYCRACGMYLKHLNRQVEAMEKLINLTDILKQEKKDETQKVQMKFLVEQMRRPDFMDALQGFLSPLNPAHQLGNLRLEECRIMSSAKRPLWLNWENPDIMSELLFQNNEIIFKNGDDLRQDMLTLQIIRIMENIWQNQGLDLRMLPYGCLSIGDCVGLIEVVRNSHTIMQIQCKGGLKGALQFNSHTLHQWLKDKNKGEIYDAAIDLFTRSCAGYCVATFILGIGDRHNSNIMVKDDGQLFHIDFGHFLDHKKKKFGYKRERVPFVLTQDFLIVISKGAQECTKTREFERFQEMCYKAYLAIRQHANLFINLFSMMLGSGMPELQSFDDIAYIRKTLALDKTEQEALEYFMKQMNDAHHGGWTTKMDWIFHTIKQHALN
Chain of p110α (P27986 whole entry partner): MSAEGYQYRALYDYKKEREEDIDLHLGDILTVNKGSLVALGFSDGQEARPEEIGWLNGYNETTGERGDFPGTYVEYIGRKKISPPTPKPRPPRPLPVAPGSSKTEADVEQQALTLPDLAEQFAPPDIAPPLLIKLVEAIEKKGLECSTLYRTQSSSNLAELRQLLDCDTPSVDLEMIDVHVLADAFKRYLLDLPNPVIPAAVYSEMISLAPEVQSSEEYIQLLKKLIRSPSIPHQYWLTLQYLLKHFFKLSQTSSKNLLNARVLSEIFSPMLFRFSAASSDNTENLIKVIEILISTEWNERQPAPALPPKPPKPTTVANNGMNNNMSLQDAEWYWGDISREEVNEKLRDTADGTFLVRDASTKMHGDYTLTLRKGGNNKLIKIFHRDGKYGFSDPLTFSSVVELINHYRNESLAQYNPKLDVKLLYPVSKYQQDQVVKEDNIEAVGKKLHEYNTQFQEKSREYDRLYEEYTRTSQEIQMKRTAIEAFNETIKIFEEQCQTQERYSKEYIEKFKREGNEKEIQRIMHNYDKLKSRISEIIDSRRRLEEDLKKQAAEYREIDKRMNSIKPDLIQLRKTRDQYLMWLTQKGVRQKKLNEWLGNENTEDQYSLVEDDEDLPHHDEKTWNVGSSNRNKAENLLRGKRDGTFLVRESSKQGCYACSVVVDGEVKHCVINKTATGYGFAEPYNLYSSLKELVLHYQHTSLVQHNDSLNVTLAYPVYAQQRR

Compound	IC50 [µM]
O=C(O)c1ccc(-n2cc(-c3cccc4c(=O)cc(N5CCOCC5)[nH]c34)nn2)cc1 [CL29a, 4-(4-(2-morpholino-4-oxo-1,4-dihydroquinolin-8-yl)-1H-1,2,3-triazol-1-yl)benzoic acid]	0.32
Cc1cc(F)ccc1Oc1cccc2c(=O)cc(N3CCOCC3)[nH]c12 [TGX155, reference compound]	> 20
O=c1cc(N2CCOCC2)[nH]c2c(-c3cn(Cc4ccccc4)nn3)cccc12 [CL5, 8-(1-benzyl-1H-1,2,3-triazol-4-yl)-2-morpholinoquinolin-4(1H)-one]	0.26
O=C(NCc1ccccc1)c1cccc(Cn2cc(-c3cccc4c(=O)cc(N5CCOCC5)[nH]c34)nn2)c1 [CL129a, N-benzyl-3-((4-(2-morpholino-4-oxo-1,4-dihydroquinolin-8-yl)-1H-1,2,3-triazol-1-yl)methyl) benzamide]	0.14
O=c1cc(N2CCOCC2)[nH]c2c(-c3cn(-c4ccccc4)nn3)cccc12 [CL1, 2-morpholino-8-(1-phenyl-1h-1,2,3-triazol-4-yl)quinolin-4(1H)-one]	0.73
O=C(O)CCCCn1cc(-c2cccc3c(=O)cc(N4CCOCC4)[nH]c23)nn1 [CL64a, 5-(4-(2-morpholino-4-oxo-1,4-dihydroquinolin-8-yl)-1H-1,2,3-triazol-1-yl)pentanoic acid]	0.1
O=c1cc(N2CCOCC2)[nH]c2c(-c3cn(-c4ccccc4O)nn3)cccc12 [TP714, 8-(1-(2-hydroxyphenyl)-1H-1,2,3-triazol-4-yl)-2-morpholinoquinolin-4(1H)-one]	0.26

More lines, in order of falling IC50, values ahead:

IC50 [µM]	Compound
0.1	O=C(O)c1cccc(-n2cc(-c3cccc4c(=O)cc(N5CCOCC5)[nH]c34)nn2)c1 [CL55b, 3-(4-(2-morpholino-4-oxo-1,4-dihydroquinolin-8-yl)-1H-1,2,3-triazol-1-yl)benzoic acid]
0.1	N#CCc1ccc(-n2cc(-c3cccc4c(=O)cc(N5CCOCC5)[nH]c34)nn2)cc1 [CL12, 2-(4-(4-(2-morpholino-4-oxo-1,4-dihydroquinolin-8-yl)-1H-1,2,3-triazol-1-yl)phenyl) acetonitrile]
0.1	O=C(O)CCCn1cc(-c2cccc3c(=O)cc(N4CCOCC4)[nH]c23)nn1 [CL55a, 4-(4-(2-morpholino-4-oxo-1,4-dihydroquinolin-8-yl)-1H-1,2,3-triazol-1-yl)butanoic acid]
0.02	O=C(O)c1cccc(Cn2cc(-c3cccc4c(=O)cc(N5CCOCC5)[nH]c34)nn2)c1 [CL27e, 3-((4-(2-morpholino-4-oxo-1,4-dihydroquinolin-8-yl)-1H-1,2,3-triazol-1-yl)methyl)benzoic acid]

From US8841288B2, “Quinolin-4 (1H)-one derivatives as inhibitors of phosphatidylinositol 3-kinases” (Universtà Degli Studi di Torino, priority 2010, dated 2014)
